Assay: refractive index (other wavelength) (dimensionless); xn = mol fraction of the nth substance listed
Settings: 101 kPa, Liquid, Standard Abbe refractometry

CC(C)OC(C)C [diisopropyl ether] + CO
refractive index
Settings | Wavelength=40.47 nm | Wavelength=435.8 nm | Wavelength=486.1 nm | Wavelength=546.1 nm | Wavelength=587.6 nm | Wavelength=589.3 nm | Wavelength=632.8 nm | Wavelength=644 nm | Wavelength=706.5 nm
293.15 K, x2 = 0 | 1.37888 | 1.37585 | 1.37241 | 1.36955 | 1.36806 | 1.36801 | 1.36674 | 1.36644 | 1.36501
293.15 K, x2 = 0.0423 | 1.37892 | 1.37589 | 1.37246 | 1.3696 | 1.36811 | 1.36806 | 1.36678 | 1.36648 | 1.36504
293.15 K, x2 = 0.0424 | 1.37884 | 1.37583 | 1.37238 | 1.36953 | 1.36803 | 1.36798 | 1.3667 | 1.3664 | 1.36476
293.15 K, x2 = 0.082 | 1.37887 | 1.37585 | 1.37242 | 1.36956 | 1.36807 | 1.36802 | 1.36674 | 1.36644 | 1.365
293.15 K, x2 = 0.0822 | 1.37872 | 1.37569 | 1.37228 | 1.36942 | 1.36795 | 1.36789 | 1.36663 | 1.36633 | 1.36487
293.15 K, x2 = 0.1171 | 1.37858 | 1.37556 | 1.37214 | 1.3693 | 1.36783 | 1.36777 | 1.36649 | 1.36619 | 1.36476
293.15 K, x2 = 0.1271 | 1.37862 | 1.3756 | 1.37217 | 1.36933 | 1.36784 | 1.36779 | 1.36651 | 1.36622 | 1.36479
293.15 K, x2 = 0.1827 | 1.37814 | 1.37514 | 1.37173 | 1.36889 | 1.36741 | 1.36736 | 1.36608 | 1.36579 | 1.36436
293.15 K, x2 = 0.2162 | 1.37791 | 1.37492 | 1.37149 | 1.36867 | 1.36719 | 1.36713 | 1.36585 | 1.36556 | 1.36414
293.15 K, x2 = 0.251 | 1.37812 | 1.37513 | 1.37172 | 1.36888 | 1.36741 | 1.36735 | 1.36609 | 1.36579 | 1.36436
293.15 K, x2 = 0.3298 | 1.37709 | 1.37411 | 1.37071 | 1.36792 | 1.36645 | 1.3664 | 1.36512 | 1.36482 | 1.3634
293.15 K, x2 = 0.3577 | 1.37556 | 1.37264 | 1.36925 | 1.36647 | 1.365 | 1.36494 | 1.36367 | 1.36338 | 1.36197
293.15 K, x2 = 0.4497 | 1.37463 | 1.3717 | 1.36834 | 1.36558 | 1.36412 | 1.36407 | 1.3628 | 1.36251 | 1.3611
293.15 K, x2 = 0.4525 | 1.37517 | 1.37223 | 1.36886 | 1.36609 | 1.36462 | 1.36457 | 1.3633 | 1.36301 | 1.3616
293.15 K, x2 = 0.522 | 1.37278 | 1.36987 | 1.36658 | 1.36382 | 1.36239 | 1.36233 | 1.36109 | – | 1.35939
293.15 K, x2 = 0.5543 | 1.37252 | 1.36963 | 1.36633 | 1.36357 | 1.36214 | 1.36209 | 1.36085 | 1.36055 | 1.35915
293.15 K, x2 = 0.609 | 1.36927 | 1.3664 | 1.36316 | 1.3644 | 1.35903 | 1.35897 | 1.35774 | 1.35745 | 1.35606
293.15 K, x2 = 0.6529 | 1.36767 | 1.36484 | 1.36161 | 1.35891 | 1.35751 | 1.35746 | 1.35624 | 1.35595 | 1.35456
293.15 K, x2 = 0.7504 | 1.36362 | 1.36086 | 1.35769 | 1.35503 | 1.35365 | 1.3536 | 1.3524 | 1.35211 | –
293.15 K, x2 = 0.804 | 1.35916 | 1.35647 | 1.35338 | 1.35075 | 1.34938 | 1.34933 | 1.34816 | 1.34788 | 1.34652
293.15 K, x2 = 0.807 | 1.35902 | 1.35632 | 1.35323 | 1.3506 | 1.34924 | 1.34919 | 1.34801 | 1.34773 | 1.34638
293.15 K, x2 = 0.8727 | 1.35351 | 1.35088 | 1.34784 | 1.34528 | 1.34394 | 1.34389 | 1.34273 | 1.34246 | 1.34113
293.15 K, x2 = 0.9233 | 1.34636 | 1.34384 | 1.34087 | 1.33839 | 1.33708 | 1.33703 | 1.3359 | 1.33564 | 1.33435
293.15 K, x2 = 0.9253 | 1.34824 | 1.34571 | 1.34275 | 1.34023 | 1.33891 | 1.33886 | 1.33772 | 1.33746 | 1.33617
293.15 K, x2 = 0.9527 | 1.34496 | 1.34296 | 1.33953 | 1.33705 | 1.33574 | 1.33569 | 1.33457 | 1.33431 | 1.33303
293.15 K, x2 = 0.9773 | 1.34138 | 1.33894 | 1.33601 | 1.33356 | 1.33228 | 1.33223 | 1.33112 | 1.33086 | 1.32963
293.15 K, x2 = 0.989 | 1.34018 | 1.33775 | 1.33487 | 1.33242 | 1.33114 | 1.3311 | 1.33 | 1.32975 | 1.32951
293.15 K, x2 = 0.9964 | 1.33872 | 1.33631 | 1.33342 | 1.33098 | 1.3297 | 1.32965 | 1.32856 | 1.32831 | 1.32708
298.15 K, x2 = 0 | 1.37607 | 1.37308 | 1.36965 | 1.36683 | 1.36535 | – | – | – | –
298.15 K, x2 = 0.0423 | 1.37664 | 1.37305 | 1.36963 | 1.36681 | 1.36534 | – | – | – | –
298.15 K, x2 = 0.0424 | 1.37602 | 1.37303 | 1.36961 | 1.36679 | 1.36531 | – | – | – | –
298.15 K, x2 = 0.082 | 1.37599 | 1.373 | 1.36958 | 1.36677 | 1.36528 | – | – | – | –
298.15 K, x2 = 0.0822 | 1.37598 | 1.373 | 1.36957 | 1.36678 | 1.3653 | – | – | – | –
298.15 K, x2 = 0.1171 | 1.3758 | 1.37283 | 1.36942 | 1.36661 | 1.36514 | – | – | – | –
298.15 K, x2 = 0.1271 | 1.37584 | 1.37286 | 1.36944 | 1.36664 | 1.36515 | – | – | – | –
298.15 K, x2 = 0.1827 | 1.37543 | 1.37246 | 1.36905 | 1.36626 | 1.36478 | – | – | – | –
298.15 K, x2 = 0.2162 | 1.37664 | 1.37305 | 1.36963 | 1.36681 | 1.36534 | – | – | – | –
298.15 K, x2 = 0.251 | 1.37352 | 1.37234 | 1.36895 | 1.36616 | 1.3647 | – | – | – | –
298.15 K, x2 = 0.3298 | 1.37448 | 1.37153 | 1.36815 | 1.36537 | 1.36391 | – | – | – | –
298.15 K, x2 = 0.3577 | 1.37299 | 1.37006 | 1.36672 | 1.36396 | 1.36251 | – | – | – | –
298.15 K, x2 = 0.4497 | 1.37205 | 1.36914 | 1.36584 | 1.36306 | 1.36163 | – | – | – | –
298.15 K, x2 = 0.4525 | 1.37262 | 1.36969 | 1.36637 | 1.3636 | – | – | – | – | –
298.15 K, x2 = 0.522 | 1.37025 | 1.36737 | 1.36409 | 1.36134 | – | – | – | – | –
298.15 K, x2 = 0.5543 | 1.3698 | 1.36692 | 1.36368 | 1.36093 | – | – | – | – | –
298.15 K, x2 = 0.609 | 1.36677 | 1.36396 | – | 1.35803 | – | – | – | – | –
298.15 K, x2 = 0.6529 | 1.36523 | 1.36244 | 1.35923 | 1.35655 | – | – | – | – | –
298.15 K, x2 = 0.7504 | 1.36122 | 1.35846 | 1.35533 | 1.3527 | – | – | – | – | –
298.15 K, x2 = 0.804 | 1.35681 | 1.35412 | 1.35108 | 1.34846 | – | – | – | – | –
298.15 K, x2 = 0.807 | 1.3567 | 1.35401 | 1.35096 | 1.34834 | – | – | – | – | –
298.15 K, x2 = 0.8727 | 1.35132 | 1.34872 | 1.34572 | 1.34316 | – | – | – | – | –
298.15 K, x2 = 0.9233 | 1.34416 | 1.34165 | 1.33873 | 1.33624 | – | – | – | – | –
298.15 K, x2 = 0.9253 | 1.34607 | 1.34355 | 1.3406 | 1.33811 | – | – | – | – | –
298.15 K, x2 = 0.9527 | 1.34281 | 1.34033 | 1.3374 | 1.33494 | – | – | – | – | –
298.15 K, x2 = 0.9773 | 1.33922 | 1.3368 | 1.3339 | 1.33146 | – | – | – | – | –
298.15 K, x2 = 0.989 | 1.33798 | 1.3356 | 1.3327 | 1.33028 | – | – | – | – | –
298.15 K, x2 = 0.9964 | 1.33656 | 1.3342 | 1.33128 | 1.32888 | – | – | – | – | –

— the NIST ThermoML archive (doi:10.1016/j.fluid.2014.09.014)
